Active and inactive are the calls of the source. The calls are words filed in the database; no cut-off is given here.
Experiments:
[1] = target: T1, mTORC1 (Homo sapiens) (UniProt P42345+Q8N122+Q9BVC4); experiment: Inhibition of mTORC1 in human CLL cells assessed as reduction in c-Myc expression at 5 uM measured after 24 hrs by Western blot analysis; type: cell-based; settings: CLL cell
[2] = target: T1, mTORC1 (Homo sapiens); experiment: Inhibition of mTORC1 in human SLL cells assessed as reduction in 4E-BP1 phosphorylation at 5 uM measured after 24 hrs by Western blot analysis; type: cell-based
[3] = target: T1, mTORC1 (Homo sapiens); experiment: Inhibition of mTORC1 in human CLL cells assessed as reduction in 4E-BP1 phosphorylation at 5 uM measured after 24 hrs in presence of bortezomib by Western blot analysis; type: cell-based; settings: CLL cell
[4] = system: OCI-Ly10; experiment: Induction of apoptosis in human LY10 cells assessed as increase in cleaved-PARP expression at 3 uM measured after 24 hrs in presence of bortezomib by Western blot analysis; type: functional, cell-based
[5] = system: PF-382; experiment: Induction of apoptosis in human PF-382 cells assessed as increase in cleaved-PARP expression at 5 uM measured after 24 hrs in presence of bortezomib by Western blot analysis; type: functional, cell-based
[6] = system: CLL cell; experiment: Induction of apoptosis in human CLL cells assessed as increase in cleaved-PARP expression at 5 uM measured after 24 hrs in presence of bortezomib by Western blot analysis; type: functional, cell-based
[7] = system: MZL; experiment: Induction of apoptosis in human MZL cells assessed as increase in cleaved-PARP expression at 5 uM measured after 24 hrs in presence of bortezomib by Western blot analysis; type: functional, cell-based
[8] = system: OCI-Ly10; experiment: Induction of apoptosis in human LY10 cells assessed as increase in caspase-3/7 activation at 1 to 3 uM measured after 24 hrs in presence of bortezomib; type: functional, cell-based; settings: dose 1-3 µM
[9] = target: Myc proto-oncogene protein (Homo sapiens) (UniProt P01106); experiment: Inhibition of c-Myc in human LY7 cells assessed as reduction in eIF4B expression at 3 uM incubated for 24 hrs in presence of bortezomib by Western blot analysis; type: cell-based
Myc proto-oncogene protein (Homo sapiens), sequence (P01106 whole entry, canonical isoform): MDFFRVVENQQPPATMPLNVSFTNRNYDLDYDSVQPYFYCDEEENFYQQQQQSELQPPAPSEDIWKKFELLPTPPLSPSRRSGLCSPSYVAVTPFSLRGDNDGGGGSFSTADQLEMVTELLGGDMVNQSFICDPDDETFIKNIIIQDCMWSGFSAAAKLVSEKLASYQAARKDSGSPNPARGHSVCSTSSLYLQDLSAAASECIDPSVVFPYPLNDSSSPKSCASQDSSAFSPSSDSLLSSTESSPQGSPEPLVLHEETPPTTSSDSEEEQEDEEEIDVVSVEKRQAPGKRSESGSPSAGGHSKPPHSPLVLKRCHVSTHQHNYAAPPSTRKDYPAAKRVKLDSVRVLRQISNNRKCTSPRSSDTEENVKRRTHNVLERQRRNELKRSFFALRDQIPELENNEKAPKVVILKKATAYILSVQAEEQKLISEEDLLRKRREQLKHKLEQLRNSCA

[10] = target: Casein kinase I isoform epsilon (Homo sapiens, UniProt P49674); experiment: Inhibition of recombinant human full-length N-terminal GST-tagged CK1epsilon expressed in baculovirus infected Sf9 insect cells at 50 uM using casein as substrate measured after 60 mins by ADP-glo kinase assay relative to control
Casein kinase I isoform epsilon, sequence (P49674 whole entry, looked up, canonical isoform): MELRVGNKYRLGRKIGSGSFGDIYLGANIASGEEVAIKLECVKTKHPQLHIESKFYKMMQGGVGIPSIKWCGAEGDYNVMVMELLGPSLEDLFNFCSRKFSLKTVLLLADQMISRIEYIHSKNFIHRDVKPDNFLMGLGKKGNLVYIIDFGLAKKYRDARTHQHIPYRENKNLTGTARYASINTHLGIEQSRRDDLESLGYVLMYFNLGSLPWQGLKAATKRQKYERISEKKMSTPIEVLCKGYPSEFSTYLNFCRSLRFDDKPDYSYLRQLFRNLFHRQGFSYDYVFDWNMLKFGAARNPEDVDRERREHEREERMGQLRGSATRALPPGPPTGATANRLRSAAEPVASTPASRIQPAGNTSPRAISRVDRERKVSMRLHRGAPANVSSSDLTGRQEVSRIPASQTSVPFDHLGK

[11] = target: T1, mTORC1 (Homo sapiens); experiment: Inhibition of mTORC1 in human SLL cells assessed as reduction in 4E-BP1 phosphorylation at 5 uM measured after 24 hrs in presence of carfilzomib by Western blot analysis; type: cell-based
[12] = target: T1, mTORC1 (Homo sapiens); experiment: Inhibition of mTORC1 in human NCI-H929 cells assessed as reduction in 4E-BP1 phosphorylation at 5 uM measured after 24 hrs in presence of carfilzomib by Western blot analysis; type: cell-based
[13] = target: T1, mTORC1 (Homo sapiens); experiment: Inhibition of mTORC1 in human CLL cells assessed as reduction in c-Myc expression at 5 uM measured after 24 hrs in presence of carfilzomib by Western blot analysis; type: cell-based; settings: CLL cell
[14] = target: T1, mTORC1 (Homo sapiens); experiment: Inhibition of mTORC1 in human LY7 cells assessed as reduction in c-Myc expression at 3 uM measured after 24 hrs in presence of carfilzomib by Western blot analysis; type: cell-based
[15] = target: T2, Phosphatidylinositol 4,5-bisphosphate 3-kinase catalytic subunit delta isoform (Homo sapiens) (UniProt O00329); experiment: Inhibition of PI3Kdelta in human THP-1 cells assessed as reduction in AKT phosphorylation at S473 residue at 1 uM measured after 4 hrs relative to control; type: cell-based
T2 sequence (whole entry): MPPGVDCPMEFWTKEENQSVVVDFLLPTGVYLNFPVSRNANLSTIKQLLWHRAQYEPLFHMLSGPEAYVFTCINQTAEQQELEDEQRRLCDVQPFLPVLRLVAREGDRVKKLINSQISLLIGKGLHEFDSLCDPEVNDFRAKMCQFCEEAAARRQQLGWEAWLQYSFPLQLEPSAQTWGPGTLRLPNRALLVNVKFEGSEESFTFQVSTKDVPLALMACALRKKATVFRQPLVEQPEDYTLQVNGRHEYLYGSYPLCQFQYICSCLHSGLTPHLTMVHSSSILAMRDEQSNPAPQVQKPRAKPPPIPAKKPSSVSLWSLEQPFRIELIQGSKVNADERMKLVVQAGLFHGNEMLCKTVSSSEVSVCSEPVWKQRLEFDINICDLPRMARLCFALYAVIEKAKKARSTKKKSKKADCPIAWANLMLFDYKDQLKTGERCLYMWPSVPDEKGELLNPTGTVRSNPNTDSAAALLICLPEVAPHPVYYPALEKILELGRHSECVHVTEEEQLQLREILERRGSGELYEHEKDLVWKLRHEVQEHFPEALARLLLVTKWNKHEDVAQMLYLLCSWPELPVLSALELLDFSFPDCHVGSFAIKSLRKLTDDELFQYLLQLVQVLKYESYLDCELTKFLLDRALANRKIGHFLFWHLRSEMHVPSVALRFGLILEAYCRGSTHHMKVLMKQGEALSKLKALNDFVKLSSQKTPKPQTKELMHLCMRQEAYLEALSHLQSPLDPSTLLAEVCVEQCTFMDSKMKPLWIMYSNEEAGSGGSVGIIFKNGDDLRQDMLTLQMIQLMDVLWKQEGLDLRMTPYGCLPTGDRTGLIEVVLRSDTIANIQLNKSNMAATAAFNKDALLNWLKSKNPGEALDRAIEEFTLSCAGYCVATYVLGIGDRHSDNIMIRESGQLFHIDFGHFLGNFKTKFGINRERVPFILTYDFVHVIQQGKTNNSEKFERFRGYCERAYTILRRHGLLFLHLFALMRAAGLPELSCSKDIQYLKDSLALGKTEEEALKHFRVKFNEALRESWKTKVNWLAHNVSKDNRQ

[16] = target: T2, Phosphatidylinositol 4,5-bisphosphate 3-kinase catalytic subunit delta isoform (Homo sapiens); experiment: Inhibition of PI3Kdelta in human Jurkat cells assessed as reduction in AKT phosphorylation at S473 residue at 1 uM measured after 4 hrs relative to control; type: cell-based
[17] = system: OCI-Ly7; experiment: Cytotoxicity against human OCILY7 cells transfected with c-Myc-expressing plasmid (M+) assessed as reduction in cell viability at 3 to 5 uM incubated for 24 hrs in presence of carfilzomib by cell-titer glo assay; type: functional, cell-based; settings: dose 3-5 µM
[18] = target: T1, mTORC1 (Homo sapiens); experiment: Inhibition of mTORC1 in human NCI-H929 cells transduced with an eIF4E-overexpressing plasmid assessed as reduction in c-Myc expression at 5 uM incubated for 24 hrs in presence of carfilzomib by Western blot analysis; type: cell-based
[19] = system: NCI-H929; experiment: Cytotoxicity against human NCI-H929 cells transduced with an eIF4E-overexpressing plasmid assessed as reduction in cell viability at 5 uM incubated for 24 hrs in presence of carfilzomib by cell-titer glo assay; type: functional, cell-based
[20] = system: NCI-H929; experiment: Cytotoxicity against human NCI-H929 cells transduced with an empty vector assessed as reduction in cell viability at 5 uM incubated for 24 hrs in presence of carfilzomib by cell-titer glo assay; type: functional, cell-based
[21] = target: Myc proto-oncogene protein (Homo sapiens) (UniProt P01106); experiment: Inhibition of c-Myc in human LY10 cells assessed as reduction in E2F1 expression at 3 uM incubated for 24 hrs in presence of carfilzomib by Western blot analysis; type: cell-based
[22] = system: OCI-Ly7; experiment: Cytotoxicity against human OCILY7 cells transfected with empty vector assessed as reduction in cell viability at 7.5 to 25 uM incubated for 24 hrs by cell-titer glo assay; type: functional, cell-based; settings: dose 7.5-25 µM

T1 sequence (Q8N122 whole entry, looked up, other chains not shown): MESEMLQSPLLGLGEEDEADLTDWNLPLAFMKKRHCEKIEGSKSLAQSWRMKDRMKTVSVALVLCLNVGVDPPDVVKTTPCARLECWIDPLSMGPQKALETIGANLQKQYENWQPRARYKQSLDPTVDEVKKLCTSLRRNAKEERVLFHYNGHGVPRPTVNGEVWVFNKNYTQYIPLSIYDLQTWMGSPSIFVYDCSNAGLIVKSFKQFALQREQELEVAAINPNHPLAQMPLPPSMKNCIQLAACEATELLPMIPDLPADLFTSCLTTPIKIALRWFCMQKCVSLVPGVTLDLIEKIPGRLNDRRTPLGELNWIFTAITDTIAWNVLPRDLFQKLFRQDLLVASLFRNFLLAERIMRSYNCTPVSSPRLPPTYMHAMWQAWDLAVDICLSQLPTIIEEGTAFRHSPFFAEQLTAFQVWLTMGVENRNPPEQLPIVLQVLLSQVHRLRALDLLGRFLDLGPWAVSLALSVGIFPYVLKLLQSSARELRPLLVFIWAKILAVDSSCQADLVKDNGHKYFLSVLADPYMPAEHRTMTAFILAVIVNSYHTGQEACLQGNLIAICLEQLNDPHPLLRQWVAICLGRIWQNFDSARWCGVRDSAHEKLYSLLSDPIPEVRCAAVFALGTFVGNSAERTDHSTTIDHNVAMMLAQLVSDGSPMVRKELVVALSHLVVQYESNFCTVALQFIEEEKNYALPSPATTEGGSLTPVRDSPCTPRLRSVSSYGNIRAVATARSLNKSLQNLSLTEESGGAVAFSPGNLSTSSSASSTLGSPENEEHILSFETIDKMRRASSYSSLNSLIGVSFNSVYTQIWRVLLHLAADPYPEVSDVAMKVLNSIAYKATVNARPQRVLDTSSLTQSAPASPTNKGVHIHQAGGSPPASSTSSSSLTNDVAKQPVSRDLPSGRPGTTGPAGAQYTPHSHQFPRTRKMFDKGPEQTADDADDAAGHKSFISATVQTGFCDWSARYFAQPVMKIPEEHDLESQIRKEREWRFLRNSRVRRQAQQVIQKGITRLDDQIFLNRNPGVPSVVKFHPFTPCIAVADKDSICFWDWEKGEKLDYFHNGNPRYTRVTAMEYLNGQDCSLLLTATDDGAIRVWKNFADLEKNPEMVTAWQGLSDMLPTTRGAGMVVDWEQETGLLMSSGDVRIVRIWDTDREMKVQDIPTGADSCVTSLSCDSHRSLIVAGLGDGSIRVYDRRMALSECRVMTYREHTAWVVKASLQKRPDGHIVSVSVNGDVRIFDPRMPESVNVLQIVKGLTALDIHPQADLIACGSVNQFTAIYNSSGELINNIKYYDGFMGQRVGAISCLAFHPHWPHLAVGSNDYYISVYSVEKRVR
T1 sequence (Q9BVC4 whole entry, looked up, other chains not shown): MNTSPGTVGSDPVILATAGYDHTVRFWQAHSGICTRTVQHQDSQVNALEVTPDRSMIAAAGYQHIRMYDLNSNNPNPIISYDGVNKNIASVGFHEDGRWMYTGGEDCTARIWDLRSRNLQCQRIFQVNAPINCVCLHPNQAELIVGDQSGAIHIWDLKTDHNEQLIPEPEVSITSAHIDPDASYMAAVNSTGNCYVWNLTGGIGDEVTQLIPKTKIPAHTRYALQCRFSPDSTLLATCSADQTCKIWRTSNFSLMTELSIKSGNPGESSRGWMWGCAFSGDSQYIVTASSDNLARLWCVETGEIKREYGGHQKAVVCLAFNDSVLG

`CC[C@H](Nc1ncnc2[nH]cnc12)c1nc2cccc(F)c2c(=O)n1-c1ccccc1` was tested, and the inhibition [1] was “inactive”, the inhibition [2] was “inactive” and the inhibition [3] was “inactive”. The Activity [4] was “Active”, the Activity [5] was “Active” and the Activity [6] was “Active”. For the same compound, the Activity [7] was “Active”, the Activity [8] was “Active” and the inhibition [9] was “inactive”. For the same compound, the inhibition [10] was under 50%.

`CC(C)Oc1ccc(-c2nn([C@@H](C)c3oc4ccc(F)cc4c(=O)c3-c3cccc(F)c3)c3ncnc(N)c23)cc1F` [UMBRALISIB] was tested, and the inhibition [1] was “inactive”, the inhibition [2] was “inactive” and the inhibition [11] was “Active”. The inhibition [12] was “Active”, the inhibition [13] was “Active” and the inhibition [14] was “Active”. The inhibition [15] was 43%, the inhibition [16] was 43% and the Activity [17] was “inactive”. For the same compound, the inhibition [18] was “inactive”, the Activity [19] was “inactive” and the Activity [20] was “Active”. For the same compound, the inhibition [21] was “Active” and the Activity [22] was “Active”.
